Results published in patent US12065435B2, “Compounds for the treatment of glycogen storage disorders” (HADASIT MEDICAL RESEARCH SERVICES AND DEVELOPMENT LTD., priority 2017, dated 2024).

Experiments:
[1] = tested on: polyglucosan body (PB) in APBD patient-derived fibroblasts; test: High content (image-based) PAS screening assay for polyglucosan bodies; type: cell-based, human; details: 0, 1, 5, 10 and 50 μM
Procedure: All the steps of the assay were performed automatically using a Freedom Evo 150 liquid handling robot (Tecan). APBD patient-derived fibroblasts were seeded at a density of 800 cells/well in DMEM (Gibco) supplemented with 1 mM sodium pyruvate (Gibco), 1% antibiotics (Biological Industries, Israel) and 5% fetal bovine serum (Hyclone) into 384 well microclear plates (Greiner). The plates were transferred by the robotic arm (RoMa) into an automated incubator (Liconic), integrated with the robotic system, where they were incubated at 37° C. with 5% CO2. Following 24 h incubation, the medium was replaced by the robot using medium supplemented with 10 μM of each screened compound (0.1% DMSO final concentration, all prepared by the robot). The screened compounds were part of the Diverset CL collection purchased from ChemBridge (10,084 out of 50,000 molecules).
Next, these cells were cultured for another 24 h in the automated incubator, and, using the robot, washed them with PBS (Biological Industries, Israel), the cells were fixed with 4% paraformaldehyde (PFA), washed again with PBS, neutralized the previously added PFA by ammonium chloride (Sigma Aldrich), washed with PBS, permeabilized with 0.1% Triton X-100 (Sigma Aldrich), and washed again with PBS.
Following this, a robot was used to treat the fixed cells with 0.5 g/dl diastase (or amylase, Sigma Aldrich) for 5 minutes at 37° C. in the automated incubator, wash with PBS, stained with PAS (Merck), Hoechst 33342 (Sigma Aldrich) and Cell Mask Deep Red (Molecular Probes) and wash with PBS. Images of stained cells were then acquired by the IN Cell Analyzer 2000 (GE Healthcare) and analyzed using the IN Cell Investigator (GE Healthcare) applying an algorithm that quantified the PAS signal within each Cell Mask stained cell.
Images were segmented based on the Cell Mask signal which was linked with the segmentation of the nuclei, employing an empirically established sensitivity and kernel size for allowing the best segmentation. Once these nucleus-cytoplasm complex objects were selected, the software calculated the number of these objects (cell number) as well as the intensity of the PAS signal within each of them. All the assay parameters (including the acquisition exposure times, objective, and the analysis parameters) were kept constant throughout the whole screening campaign for allowing comparison of signals obtained from different batches of assay within the campaign.
The assay was performed as mentioned above, but with compound concentrations of 1, 5, 10, and 50 μM, instead of a constant concentration of 10 μM.
The discarded data was presumably associated with cells affected by toxic compounds. In the remaining data, the measured population mean PB intensity was normalized. Based on a series of images used for training, compounds were considered as positive only where following treatment the normalized PB mean intensity was at least under −1.2 z-score of the scale. Following this approach, 85 potential hits out of the 10,084 screened compounds were selected (0.84%).

recombinant human GS1 = target: T1, recombinant human GS1 (Homo sapiens, UniProt P13807); test: In vitro GS activity assay; type: biochemical; details: 50 μM; unpaired t-tests, p<0.05
T1 sequence (P13807 1-737): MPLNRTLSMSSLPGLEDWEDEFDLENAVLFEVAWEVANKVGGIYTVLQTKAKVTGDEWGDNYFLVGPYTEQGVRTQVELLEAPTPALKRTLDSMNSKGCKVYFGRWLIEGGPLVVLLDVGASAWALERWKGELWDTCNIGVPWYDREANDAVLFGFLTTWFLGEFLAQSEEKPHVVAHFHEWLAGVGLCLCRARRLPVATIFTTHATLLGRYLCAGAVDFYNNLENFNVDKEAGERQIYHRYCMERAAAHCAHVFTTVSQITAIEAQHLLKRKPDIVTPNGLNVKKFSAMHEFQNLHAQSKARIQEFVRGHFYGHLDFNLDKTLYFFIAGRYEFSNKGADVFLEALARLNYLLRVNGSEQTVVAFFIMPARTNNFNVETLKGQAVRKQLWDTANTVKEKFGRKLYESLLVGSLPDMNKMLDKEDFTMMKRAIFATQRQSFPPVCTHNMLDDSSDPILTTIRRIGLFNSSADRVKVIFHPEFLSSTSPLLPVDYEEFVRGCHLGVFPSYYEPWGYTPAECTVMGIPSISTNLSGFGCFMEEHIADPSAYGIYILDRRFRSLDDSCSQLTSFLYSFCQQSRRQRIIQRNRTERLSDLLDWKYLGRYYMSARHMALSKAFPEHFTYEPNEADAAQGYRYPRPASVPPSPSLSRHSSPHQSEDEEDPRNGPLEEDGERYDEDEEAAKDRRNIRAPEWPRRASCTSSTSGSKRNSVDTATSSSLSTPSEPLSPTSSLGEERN
Procedure: The reaction was carried out in 96-well plates containing 50 μl of reaction volume (50 mM Tris, pH8, 20 mM EDTA, 25 mM KF, 2 mg/ml glycogen, 10 mM Glucose-6-Phosphate, 1.65 mM UDP[14C]glucose and 100 mM UDP-glucose). To test the inhibitory effect of the hits, each one was included in the reaction at a final concentration of 50 μM. The reaction was initiated with the addition of 20 nM recombinant human GS1, followed by incubation at 37° C. for 30 min. The reaction was then stopped with the addition of 100 μl cold 100% ethanol, and the total suspension was transferred into a 96-well filter plate. Vacuum was applied to remove the ethanol. Five washing steps with 150 μl of cold 66% ethanol then fully removed any non-incorporated UDP[14C]glucose, while the labelled glycogen stayed on the well filters. The plate was dried at 37° C. incubator for 30 min. 50 μl of scintillation fluid was added to each well and the plate was read for 14C signal on Microplate scintillation and luminescence counter Top Count (Perkin Elmer).

Row | effect on GS activity (direction of change) (recombinant human GS1) | SMILES | dose response of diastase resistant cell associated mean PAS intensity normalized by z-score [1]
1 |  | O=C(CN1CCOC1=O)N1CC[C@@H](c2ccc3ccccc3c2)[C@H](O)C1 (relative stereo) [UDP #5, 3-{2-[(3S*,4S*)-3-hydroxy-4-(2-naphthyl)piperidin-1-yl]-2-oxoethyl}-1,3-oxazolidin-2-one] | concentration dependent
2 |  | Cn1nc(-c2cccs2)cc1C(=O)N1[C@@H]2CC[C@H]1CNC(=O)C2 (relative stereo) [UDP #9, (1S*,6R*)-9-{[1-methyl-3-(2-thienyl)-1H-pyrazol-5-yl]carbonyl}-3,9-diazabicyclo[4.2.1]nonan-4-one] | lowered mean normalized PAS intensity in a non-dose responding manner
3 |  | CCO[C@H]1COC[C@@H]1NC(=O)Cc1c(C)nc(N)nc1C (relative stereo) [UDP #13, 2-(2-amino-4,6-dimethylpyrimidin-5-yl)-N-[(3S*,4R*)-4-ethoxytetrahydrofuran-3-yl]acetamide] | concentration dependent
4 |  | Oc1ccc(-c2cc(NCc3cccnc3)nc3[nH]ccc23)c(F)c1 [UDP #1, 3-fluoro-4-{6-[(pyridin-3-ylmethyl)amino]-1H-pyrrolo[2,3-b]pyridin-4-yl}phenol] | lowered mean normalized PAS intensity in a non-dose responding manner
5 |  | COc1cc(F)c(CN2CCN(c3cncc(C(N)=O)n3)CC2)c(F)c1 [UDP #2, 6-[4-(2,6-difluoro-4-methoxybenzyl)piperazin-1-yl]pyrazine-2-carboxamide] | concentration dependent
6 |  | CC(C)CCN1CCNC(=O)C1CC(=O)N1CCc2[nH]nc(C3CC3)c2C1 (centres unmarked) [UDP #3, 3-[2-(3-cyclopropyl-1,4,6,7-tetrahydro-5H-pyrazolo[4,3-c]pyridin-5-yl)-2-oxoethyl]-4-(3-methylbutyl)-2-piperazinone] | lowered mean normalized PAS intensity in a non-dose responding manner
7 | increasing | CC(C)n1ccnc1CN1CCC(c2[nH]ncc2-c2cccc(F)c2)CC1 [UDP #6, 4-[4-(3-fluorophenyl)-1H-pyrazol-5-yl]-1-[(1-isopropyl-1H-imidazol-2-yl)methyl]piperidine] | concentration dependent
8 | increasing | Cc1nc(C(C)C)cc(N2CCN(Cc3ncccc3C)CC2)n1 [UDP #7, 4-isopropyl-2-methyl-6-{4-[(3-methylpyridin-2-yl)methyl]piperazin-1-yl}pyrimidine] | lowered mean normalized PAS intensity in a non-dose responding manner
9 | increasing | CC1CCC(=O)N1c1ccc(-n2cnnc2)cc1 (centres unmarked) [UDP #8, 5-methyl-1-[4-(4H-1,2,4-triazol-4-yl)phenyl]pyrrolidin-2-one] | concentration dependent
10 |  | CCc1ccc(CN(C)C(=O)c2ccc3c(c2)no[n+]3[O-])nc1 [UDP #11, N-[(5-ethylpyridin-2-yl)methyl]-N-methyl-2,1,3-benzoxadiazole-5-carboxamide 1-oxide] | concentration dependent
11 | increasing | O=C(c1ccoc1)N1CCOc2c(O)cc(-c3cccc(Cl)c3)cc2C1 [UDP #12, 7-(3-chlorophenyl)-4-(3-furoyl)-2,3,4,5-tetrahydro-1,4-benzoxazepin-9-ol] | concentration dependent
12 |  | CC(C)(C)c1ccc(O)c(-n2cnnc2)c1 [UDP #14, 4-tert-butyl-2-(4H-1,2,4-triazol-4-yl)phenol] | concentration dependent
13 |  | C1CCc2c(n[nH]c2CCNC2CCC3(CCNCC3)CC2)C1 [UDP #15] | concentration dependent
14 |  | COc1ccc(-c2ncc(C)c(N)n2)c(C)c1 [UDP #16, 2-(4-methoxy-2-methylphenyl)-5-methylpyrimidin-4-amine] | lowered mean normalized PAS intensity in a non-dose responding manner
15 |  | Cc1c(NC(=O)c2ccco2)cccc1C(=O)N1CCC2(CCCNC2)C1 (centres unmarked) [UDP #17, N-[3-(2,7-diazaspiro[4.5]dec-2-ylcarbonyl)-2-methylphenyl]-2-furamide] | concentration dependent
16 | increasing | Cc1ccc(NC(=O)CCn2cnc(-c3ccccc3)c2C2CCOC2)c(C)c1 (centres unmarked) [UDP #18, N-(2,4-dimethylphenyl)-3-[4-phenyl-5-(tetrahydrofuran-3-yl)-1H-imidazol-1-yl]propanamide] | lowered mean normalized PAS intensity in a non-dose responding manner

Row | SMILES | effect on GS activity (direction of change) (recombinant human GS1) | dose response of diastase resistant cell associated mean PAS intensity normalized by z-score [1]
17 | Cc1ccc2c(c1)c(CNC(=O)c1ccccc1C1CCNC1)nn2C (centres unmarked) [UDP #10, N-[(1,5-dimethyl-1H-indazol-3-yl)methyl]-2-(3-pyrrolidinyl)benzamide] | except for compound #10, have significantly changed GS activity | lowered mean normalized PAS intensity in a non-dose responding manner
